Experimental data reported in ChEMBL document CHEMBL4507310, “Data for DCP probe A-1211212” (2021).

Legend:
[1] = target: Mast/stem cell growth factor receptor Kit (Homo sapiens) (UniProt P10721); conditions: Compound concentration 1000.0 nM
[2] = target: Cytoplasmic tyrosine-protein kinase BMX (Homo sapiens) (UniProt P51813); conditions: Compound concentration 1000.0 nM
[3] = target: BDNF/NT-3 growth factors receptor (Homo sapiens) (UniProt Q16620); conditions: Compound concentration 1000.0 nM
Chain of BDNF/NT-3 growth factors receptor (Homo sapiens) (Q16620 32-822 limits assumed): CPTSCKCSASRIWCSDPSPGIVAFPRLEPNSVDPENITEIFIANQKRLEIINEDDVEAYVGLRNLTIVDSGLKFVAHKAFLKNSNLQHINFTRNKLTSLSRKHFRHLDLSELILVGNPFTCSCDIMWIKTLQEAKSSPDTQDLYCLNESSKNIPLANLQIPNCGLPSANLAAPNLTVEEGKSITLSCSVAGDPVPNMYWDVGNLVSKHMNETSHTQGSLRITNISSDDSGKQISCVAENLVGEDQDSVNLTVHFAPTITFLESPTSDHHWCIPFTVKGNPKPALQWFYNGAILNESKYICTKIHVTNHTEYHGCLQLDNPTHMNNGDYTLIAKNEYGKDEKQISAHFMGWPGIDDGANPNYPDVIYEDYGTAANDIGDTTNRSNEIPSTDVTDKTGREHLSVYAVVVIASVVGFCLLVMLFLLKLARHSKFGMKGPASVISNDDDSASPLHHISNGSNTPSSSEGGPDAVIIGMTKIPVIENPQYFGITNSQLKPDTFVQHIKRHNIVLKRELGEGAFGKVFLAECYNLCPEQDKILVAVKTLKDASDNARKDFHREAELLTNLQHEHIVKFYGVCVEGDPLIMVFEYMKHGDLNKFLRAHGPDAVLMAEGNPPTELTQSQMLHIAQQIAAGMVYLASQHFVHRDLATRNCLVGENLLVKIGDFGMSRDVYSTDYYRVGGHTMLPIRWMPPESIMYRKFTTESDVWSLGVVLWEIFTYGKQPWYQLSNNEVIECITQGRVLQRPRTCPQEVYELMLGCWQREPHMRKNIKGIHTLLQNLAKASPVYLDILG

[4] = system: Mast/stem cell growth factor receptor Kit (Homo sapiens), P10721 [V559D,V654A]; conditions: Compound concentration 1000.0 nM
Chain of Mast/stem cell growth factor receptor Kit (Homo sapiens), P10721 [V559D,V654A] (P10721 whole entry V559D/V654A): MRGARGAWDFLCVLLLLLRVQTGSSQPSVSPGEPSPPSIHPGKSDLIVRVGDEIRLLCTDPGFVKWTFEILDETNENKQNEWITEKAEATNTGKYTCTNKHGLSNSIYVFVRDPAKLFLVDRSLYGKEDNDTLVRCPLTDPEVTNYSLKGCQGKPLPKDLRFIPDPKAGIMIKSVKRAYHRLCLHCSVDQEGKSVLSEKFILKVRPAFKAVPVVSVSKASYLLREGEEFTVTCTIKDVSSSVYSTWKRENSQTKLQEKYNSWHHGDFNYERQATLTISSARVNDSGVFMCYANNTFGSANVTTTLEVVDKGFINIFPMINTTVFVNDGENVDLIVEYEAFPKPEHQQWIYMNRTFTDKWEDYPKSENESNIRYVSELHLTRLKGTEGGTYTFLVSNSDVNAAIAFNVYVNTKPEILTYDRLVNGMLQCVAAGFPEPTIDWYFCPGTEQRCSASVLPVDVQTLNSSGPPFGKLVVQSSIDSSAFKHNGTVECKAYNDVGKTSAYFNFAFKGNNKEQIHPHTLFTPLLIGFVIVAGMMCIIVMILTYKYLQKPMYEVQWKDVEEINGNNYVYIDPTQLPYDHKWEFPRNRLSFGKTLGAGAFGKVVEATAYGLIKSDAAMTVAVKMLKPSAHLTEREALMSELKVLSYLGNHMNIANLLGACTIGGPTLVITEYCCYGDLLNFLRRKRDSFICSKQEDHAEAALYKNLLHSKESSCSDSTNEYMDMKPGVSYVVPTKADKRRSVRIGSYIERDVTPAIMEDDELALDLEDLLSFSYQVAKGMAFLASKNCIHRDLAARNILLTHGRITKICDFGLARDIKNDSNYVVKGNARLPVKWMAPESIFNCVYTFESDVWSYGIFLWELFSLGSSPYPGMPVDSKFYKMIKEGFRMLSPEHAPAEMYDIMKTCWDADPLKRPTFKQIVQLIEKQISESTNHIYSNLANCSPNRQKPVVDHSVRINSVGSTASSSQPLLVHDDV

[5] = target: Mitogen-activated protein kinase 6 (Homo sapiens) (UniProt Q16659); conditions: Compound concentration 1000.0 nM
[6] = target: Cyclin-dependent kinase-like 3 (Homo sapiens) (UniProt Q8IVW4); conditions: Compound concentration 1000.0 nM
[7] = target: Protein kinase C eta type (Homo sapiens) (UniProt P24723); conditions: Compound concentration 1000.0 nM
[8] = target: Serine/threonine-protein kinase PLK4 (Homo sapiens) (UniProt O00444); conditions: Compound concentration 1000.0 nM
[9] = target: Cyclin-dependent kinase 9 (Homo sapiens) (UniProt P50750); conditions: Compound concentration 1000.0 nM
[10] = target: Tyrosine-protein kinase HCK (Homo sapiens) (UniProt P08631); conditions: Compound concentration 1000.0 nM
[11] = target: Tyrosine-protein kinase Lyn (Homo sapiens) (UniProt P07948); conditions: Compound concentration 1000.0 nM
[12] = target: Mitogen-activated protein kinase kinase kinase 19 (Homo sapiens) (UniProt Q56UN5); conditions: Compound concentration 1000.0 nM
[13] = target: Tyrosine-protein kinase JAK1 (Homo sapiens) (UniProt P23458); conditions: Compound concentration 1000.0 nM
[14] = target: Dual specificity protein kinase CLK1 (Homo sapiens) (UniProt P49759); conditions: Compound concentration 1000.0 nM
[15] = target: MAP kinase-activated protein kinase 5 (Homo sapiens) (UniProt Q8IW41); conditions: Compound concentration 1000.0 nM
Chain of MAP kinase-activated protein kinase 5 (Homo sapiens) (Q8IW41 whole entry): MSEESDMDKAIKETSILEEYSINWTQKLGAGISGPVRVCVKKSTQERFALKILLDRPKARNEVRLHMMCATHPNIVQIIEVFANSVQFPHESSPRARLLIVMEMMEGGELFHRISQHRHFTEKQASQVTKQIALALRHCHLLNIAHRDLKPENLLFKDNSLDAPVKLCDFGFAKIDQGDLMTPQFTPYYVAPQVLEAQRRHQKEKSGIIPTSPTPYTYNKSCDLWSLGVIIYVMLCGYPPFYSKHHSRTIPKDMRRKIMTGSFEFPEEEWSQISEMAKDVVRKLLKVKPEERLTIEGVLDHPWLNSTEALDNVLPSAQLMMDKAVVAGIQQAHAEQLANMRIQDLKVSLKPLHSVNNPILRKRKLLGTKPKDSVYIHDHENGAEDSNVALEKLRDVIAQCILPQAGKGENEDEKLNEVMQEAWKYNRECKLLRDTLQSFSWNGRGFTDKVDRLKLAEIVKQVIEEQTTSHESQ

[16] = target: Mitogen-activated protein kinase kinase kinase 14 (Homo sapiens) (UniProt Q99558); conditions: Compound concentration 1000.0 nM
[17] = target: Neuropeptide Y receptor type 1 (Homo sapiens) (UniProt P25929); test: Y1 (h) Eurofins-Cerep binding assay; design: ligand concentration 0.025 nM; conditions: filed as agonist, Compound concentration 10.0 uM
[18] = target: Phosphatidylinositol 4,5-bisphosphate 3-kinase catalytic subunit gamma isoform (Homo sapiens) (UniProt P48736); conditions: Compound concentration 1000.0 nM
[19] = target: Ephrin type-B receptor 6 (Homo sapiens) (UniProt O15197); conditions: Compound concentration 1000.0 nM
[20] = target: P2X receptor (Rattus norvegicus) (UniProt P51579+P49653+P51578+Q64663+P47824+P51577+P49654); test: P2X Eurofins-Cerep binding assay; format: protein assay; design: ligand concentration 3 nM; conditions: filed as agonist, Compound concentration 10.0 uM
[21] = target: Activin receptor type-1-like (Homo sapiens) (UniProt P37023); conditions: Compound concentration 1000.0 nM
[22] = target: Dual specificity tyrosine-phosphorylation-regulated kinase 2 (Homo sapiens) (UniProt Q92630); conditions: Compound concentration 1000.0 nM
Chain of Dual specificity tyrosine-phosphorylation-regulated kinase 2 (Homo sapiens) (Q92630 whole entry): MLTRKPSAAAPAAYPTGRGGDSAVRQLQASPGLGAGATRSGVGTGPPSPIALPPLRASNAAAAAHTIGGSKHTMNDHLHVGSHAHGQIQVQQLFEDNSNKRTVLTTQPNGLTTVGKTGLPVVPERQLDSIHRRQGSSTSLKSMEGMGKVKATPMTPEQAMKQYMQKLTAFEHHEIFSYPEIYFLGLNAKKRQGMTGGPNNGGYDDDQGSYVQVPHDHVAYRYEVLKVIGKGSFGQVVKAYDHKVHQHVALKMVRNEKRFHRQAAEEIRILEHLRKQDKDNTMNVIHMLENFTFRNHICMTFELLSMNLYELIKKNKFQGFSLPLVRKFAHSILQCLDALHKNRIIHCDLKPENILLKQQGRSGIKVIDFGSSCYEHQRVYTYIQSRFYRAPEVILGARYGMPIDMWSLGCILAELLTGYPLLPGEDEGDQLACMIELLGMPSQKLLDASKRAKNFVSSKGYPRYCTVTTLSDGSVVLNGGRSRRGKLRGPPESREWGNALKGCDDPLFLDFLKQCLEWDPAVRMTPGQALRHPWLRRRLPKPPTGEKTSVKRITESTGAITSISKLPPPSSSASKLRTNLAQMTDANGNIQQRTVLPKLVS

[23] = target: SRSF protein kinase 3 (Homo sapiens) (UniProt Q9UPE1); conditions: Compound concentration 1000.0 nM
[24] = target: Cyclin-dependent kinase 3 (Homo sapiens) (UniProt Q00526); conditions: Compound concentration 1000.0 nM
[25] = target: Receptor tyrosine-protein kinase erbB-2 (Homo sapiens) (UniProt P04626); conditions: Compound concentration 1000.0 nM
[26] = target: Serine/threonine-protein kinase PAK 4 (Homo sapiens) (UniProt O96013); conditions: Compound concentration 1000.0 nM
Rattus norvegicus = species on record: Rattus norvegicus; conditions: Compound concentration 10.0 uM
[27] = system: Phosphatidylinositol 4,5-bisphosphate 3-kinase catalytic subunit alpha isoform (Homo sapiens), P42336 [H1047L]; conditions: Compound concentration 1000.0 nM
[28] = system: Receptor-type tyrosine-protein kinase FLT3 (Homo sapiens), P36888 [K663Q]; conditions: Compound concentration 1000.0 nM
[29] = target: Serine/threonine-protein kinase MRCK gamma (Homo sapiens) (UniProt Q6DT37); conditions: Compound concentration 1000.0 nM
Chain of Serine/threonine-protein kinase MRCK gamma (Homo sapiens) (Q6DT37 whole entry): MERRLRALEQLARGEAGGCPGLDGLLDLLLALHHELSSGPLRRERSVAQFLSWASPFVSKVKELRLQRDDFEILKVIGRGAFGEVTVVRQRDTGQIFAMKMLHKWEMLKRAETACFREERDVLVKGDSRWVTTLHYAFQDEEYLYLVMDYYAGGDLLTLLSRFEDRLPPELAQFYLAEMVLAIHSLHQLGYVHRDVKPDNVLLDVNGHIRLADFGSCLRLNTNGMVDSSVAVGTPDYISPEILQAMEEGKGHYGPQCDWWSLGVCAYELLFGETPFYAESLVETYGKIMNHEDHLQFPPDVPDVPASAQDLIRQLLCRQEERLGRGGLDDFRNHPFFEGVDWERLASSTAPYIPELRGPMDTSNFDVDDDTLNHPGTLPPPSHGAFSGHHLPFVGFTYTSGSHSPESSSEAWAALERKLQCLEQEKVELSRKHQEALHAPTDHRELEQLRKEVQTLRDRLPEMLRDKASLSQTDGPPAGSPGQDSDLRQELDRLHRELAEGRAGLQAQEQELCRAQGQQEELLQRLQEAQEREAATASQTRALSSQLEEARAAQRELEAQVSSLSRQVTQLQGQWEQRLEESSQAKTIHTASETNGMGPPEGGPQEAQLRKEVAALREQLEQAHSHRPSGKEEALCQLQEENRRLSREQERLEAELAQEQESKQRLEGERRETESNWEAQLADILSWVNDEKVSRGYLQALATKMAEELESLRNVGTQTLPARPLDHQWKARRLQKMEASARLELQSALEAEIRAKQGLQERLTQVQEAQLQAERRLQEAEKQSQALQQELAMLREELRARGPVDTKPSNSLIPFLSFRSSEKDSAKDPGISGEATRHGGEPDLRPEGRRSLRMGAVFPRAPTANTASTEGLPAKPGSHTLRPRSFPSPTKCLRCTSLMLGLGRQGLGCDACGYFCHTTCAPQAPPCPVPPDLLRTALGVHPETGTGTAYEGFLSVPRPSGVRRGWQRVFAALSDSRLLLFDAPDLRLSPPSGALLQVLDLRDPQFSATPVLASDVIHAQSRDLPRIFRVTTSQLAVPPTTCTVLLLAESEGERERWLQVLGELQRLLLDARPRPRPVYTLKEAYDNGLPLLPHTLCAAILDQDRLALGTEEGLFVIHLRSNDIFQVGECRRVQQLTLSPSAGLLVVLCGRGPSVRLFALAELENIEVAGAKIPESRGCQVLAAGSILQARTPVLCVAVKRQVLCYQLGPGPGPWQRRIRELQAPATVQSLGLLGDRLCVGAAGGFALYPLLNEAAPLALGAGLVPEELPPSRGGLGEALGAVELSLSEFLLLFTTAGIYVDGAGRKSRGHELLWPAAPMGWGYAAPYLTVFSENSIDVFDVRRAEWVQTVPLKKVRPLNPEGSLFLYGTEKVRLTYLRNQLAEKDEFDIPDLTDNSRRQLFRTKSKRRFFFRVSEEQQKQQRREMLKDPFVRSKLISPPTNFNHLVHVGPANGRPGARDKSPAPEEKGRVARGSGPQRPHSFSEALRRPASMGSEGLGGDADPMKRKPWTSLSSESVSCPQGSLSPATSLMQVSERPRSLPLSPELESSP

[30] = target: Myosin light chain kinase family member 4 (Homo sapiens) (UniProt Q86YV6); conditions: Compound concentration 1000.0 nM
[31] = target: Alpha-1A adrenergic receptor (Homo sapiens) (UniProt P35348); test: Alpha1A (h) Eurofins-Cerep binding assay; design: ligand concentration 0.1 nM; conditions: filed as antagonist, Compound concentration 10.0 uM
[32] = target: Calcium/calmodulin-dependent protein kinase type II subunit gamma (Homo sapiens) (UniProt Q13555); conditions: Compound concentration 1000.0 nM
Chain of Calcium/calmodulin-dependent protein kinase type II subunit gamma (Homo sapiens) (Q13555 whole entry): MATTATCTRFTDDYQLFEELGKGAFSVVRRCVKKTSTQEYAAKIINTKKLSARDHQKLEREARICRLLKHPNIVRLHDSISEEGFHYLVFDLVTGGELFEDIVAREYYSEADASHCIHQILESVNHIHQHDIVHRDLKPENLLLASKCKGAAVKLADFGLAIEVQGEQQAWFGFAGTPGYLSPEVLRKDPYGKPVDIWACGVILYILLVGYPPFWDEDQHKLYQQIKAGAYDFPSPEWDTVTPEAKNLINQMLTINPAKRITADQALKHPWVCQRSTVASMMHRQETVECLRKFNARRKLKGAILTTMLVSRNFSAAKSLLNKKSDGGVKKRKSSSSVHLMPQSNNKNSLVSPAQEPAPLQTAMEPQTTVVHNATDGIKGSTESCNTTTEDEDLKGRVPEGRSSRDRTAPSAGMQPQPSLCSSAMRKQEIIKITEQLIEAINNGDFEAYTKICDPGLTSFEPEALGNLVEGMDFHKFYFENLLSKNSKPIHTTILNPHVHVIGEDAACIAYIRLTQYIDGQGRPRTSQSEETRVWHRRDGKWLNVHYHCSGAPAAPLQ

[33] = target: T1, 5-hydroxytryptamine receptor 3A (Homo sapiens) (UniProt P46098); test: 5-HT3 (h) Eurofins-Cerep binding assay; design: ligand concentration 0.5 nM; conditions: filed as antagonist, Compound concentration 10.0 uM
T1 sequence (whole entry): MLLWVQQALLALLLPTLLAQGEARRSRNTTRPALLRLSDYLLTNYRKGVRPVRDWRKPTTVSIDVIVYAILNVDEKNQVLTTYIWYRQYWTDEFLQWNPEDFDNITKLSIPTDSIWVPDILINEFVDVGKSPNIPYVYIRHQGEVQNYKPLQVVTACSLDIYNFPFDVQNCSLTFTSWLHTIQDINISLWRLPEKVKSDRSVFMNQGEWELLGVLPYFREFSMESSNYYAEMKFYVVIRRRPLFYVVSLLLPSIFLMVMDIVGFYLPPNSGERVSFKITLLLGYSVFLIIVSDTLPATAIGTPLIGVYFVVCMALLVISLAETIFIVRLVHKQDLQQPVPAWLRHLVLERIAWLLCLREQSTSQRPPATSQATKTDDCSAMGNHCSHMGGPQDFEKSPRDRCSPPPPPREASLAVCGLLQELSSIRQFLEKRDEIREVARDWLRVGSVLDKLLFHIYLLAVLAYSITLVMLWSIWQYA

[34] = target: Phosphatidylinositol 4,5-bisphosphate 3-kinase catalytic subunit alpha isoform (Homo sapiens) (UniProt P42336); conditions: Compound concentration 1000.0 nM
[35] = target: Myosin light chain kinase, smooth muscle (Homo sapiens) (UniProt Q15746); conditions: Compound concentration 1000.0 nM
[36] = target: Serine/threonine-protein kinase PAK 2 (Homo sapiens) (UniProt Q13177); conditions: Compound concentration 1000.0 nM
[37] = target: Prostaglandin G/H synthase 2 (Homo sapiens) (UniProt P35354); test: COX2(h) Eurofins-Cerep enzyme and uptake assay; conditions: Compound concentration 10.0 uM

Chain of Mast/stem cell growth factor receptor Kit (Homo sapiens) (P10721 whole entry): as the sequence (P10721 whole entry V559D/V654A) above, with D559V, A654V counted along it

O=C(NS(=O)(=O)c1ccc(NCC2CCOCC2)c([N+](=O)[O-])c1)c1ccc(N2CCN(Cc3ccc(C(F)(F)F)cc3-c3ccc(Cl)cc3)CC2)cc1Oc1cnc2[nH]ccc2c1 [A-1210227]
residual activity [1]: 100%
residual activity [2]: 100%
residual activity [3]: 88%
residual activity [4]: 100%
residual activity [5]: 100%
residual activity [6]: 95%
residual activity [7]: 100%
residual activity [8]: 98%
residual activity [9]: 100%
residual activity [10]: 99%
residual activity [11]: 99%
residual activity [12]: 71%
residual activity [13]: 100%
residual activity [14]: 69%
residual activity [15]: 81%
residual activity [16]: 65%
% Inhibition of Control Specific Binding (Mean n=2) [17]: 3.1%
residual activity [18]: 86%
residual activity [19]: 82%
% Inhibition of Control Specific Binding (Mean n=2) [20]: 10%
residual activity [21]: 77%
residual activity [22]: 100%
residual activity [23]: 100%
residual activity [24]: 100%
residual activity [25]: 100%
residual activity [26]: 93%
inhibition (Rattus norvegicus): 11.6%
residual activity [27]: 85%
residual activity [28]: 100%
residual activity [29]: 100%
residual activity [30]: 100%
% Inhibition of Control Specific Binding (Mean n=2) [31]: -5.1%
residual activity [32]: 88%
% Inhibition of Control Specific Binding (Mean n=2) [33]: 0.2%
residual activity [34]: 69%
residual activity [35]: 65%
residual activity [36]: 100%
% Inhibition of Control Values (Mean n=2) [37]: 78.1%

CO[C@H]1CC[C@H](CNc2ccc(S(=O)(=O)NC(=O)c3ccc(N4CCN(CC5=C(c6ccc(Cl)cc6)CC(C)(C)CC5)CC4)cc3Oc3cnc4[nH]ccc4c3)cc2[N+](=O)[O-])CC1 [A-1211212]
residual activity [1]: 100%
residual activity [2]: 95%
residual activity [3]: 100%
residual activity [4]: 93%
residual activity [5]: 81%
residual activity [6]: 83%
residual activity [7]: 60%
residual activity [8]: 100%
residual activity [9]: 91%
residual activity [10]: 71%
residual activity [11]: 74%
residual activity [12]: 64%
residual activity [13]: 96%
residual activity [14]: 92%
residual activity [15]: 82%
residual activity [16]: 100%
% Inhibition of Control Specific Binding (Mean n=2) [17]: 5.9%
residual activity [18]: 86%
residual activity [19]: 87%
% Inhibition of Control Specific Binding (Mean n=2) [20]: -2.7%
residual activity [21]: 72%
residual activity [22]: 100%
residual activity [23]: 100%
residual activity [24]: 100%
residual activity [25]: 54%
residual activity [26]: 78%
inhibition (Rattus norvegicus): 41.5%
residual activity [27]: 90%
residual activity [28]: 91%
residual activity [29]: 75%
residual activity [30]: 98%
% Inhibition of Control Specific Binding (Mean n=2) [31]: -3.8%
residual activity [32]: 75%
% Inhibition of Control Specific Binding (Mean n=2) [33]: -6.1%
residual activity [34]: 77%
residual activity [35]: 50%
residual activity [36]: 68%
% Inhibition of Control Values (Mean n=2) [37]: 14.2%
